Measured values: publication PMC4806784 (Investigational new drugs, 2015)

How the values were obtained:
[1] = Safety and tolerability; type: in vivo
[2] = tested on: human tumor cell lines and xenograft models; conditions: subset of human tumor cell lines and xenograft models; cited from earlier work
[3] = tested on: other kinases, including both Aurora B and Aurora C; conditions: cited from earlier work
[4] = tested on: HeLaS3 cells; conditions: cited from earlier work
[5] = tested on: AURKA, AURKB, BIRC5, PRC1, TACC3, DLGAP5 [DLG7], and NDC80 [KNTC2]; experiment: Gene expression PD biomarkers by quantitative RT-PCR on hair follicle RNA; type: in vivo, human; conditions: Panel 1 (MT), p < 0.05 unadjusted
[6] = Panel 2: MK-5108 CT with docetaxel 60 mg/m^2 (n = 17)
[7] = Panel 2: MK-5108 CT with docetaxel (N = 17)

O=C(O)[C@]1(Cc2cccc(Nc3nccs3)n2)CC[C@@H](Oc2cccc(Cl)c2F)CC1 [MK-5108]
Patients with no drug-related AEs ([1]; Panel 1: MK-5108 MT (N = 14)): 6 (42.9) n (%)
Patients with one or more drug-related AEs ([1]; Panel 1: MK-5108 MT (N = 14)): 8 (57.1) n (%)
Death ([1]; Panel 1: MK-5108 MT (n = 14)): 1 (7.1) n (%)
Discontinued treatment due to a drug-related AE ([1]; Panel 1: MK-5108 MT (n = 14)): 0 n (%)
Discontinued treatment due to a drug-related SAE ([1]; Panel 1: MK-5108 MT (n = 14)): 0 n (%)
Discontinued treatment due to an SAE ([1]; Panel 1: MK-5108 MT (n = 14)): 1 (7.1) n (%)
Discontinued treatment due to any AE ([1]; Panel 1: MK-5108 MT (n = 14)): 2 (14.3) n (%)
Patients with any AE ([1]; Panel 1: MK-5108 MT (n = 14)): 14 (100.0) n (%)
Patients with drug-related AE ([1]; Panel 1: MK-5108 MT (n = 14)): 8 (57.1) n (%)
Patients with no AE ([1]; Panel 1: MK-5108 MT (n = 14)): 0 n
Patients with serious AE ([1]; Panel 1: MK-5108 MT (n = 14)): 4 (28.6) n (%)
Patients with serious drug-related AE ([1]; Panel 1: MK-5108 MT (n = 14)): 0 n (%)
patients experiencing a DLT ([1]; Panel 2 (CT), 100 mg Q12hr (200 mg/day), febrile neutropenia (Grade 3)): one patient
patients experiencing any DLTs ([1]; Panel 2 (CT), 150 mg Q12hr, 6 patients): None
DLTs ([1]; Panel 2 (CT), 225 mg Q12hr (450 mg/day), febrile neutropenia (Grade 4) and infection (Grade 3)): 2
AEs (all grades and doses) by SOC: Gastrointestinal disorders ([1]; Panel 2 (CT), 12/17): 70.6%
AEs (all grades and doses) by SOC: Metabolism and nutrition disorders ([1]; Panel 2 (CT), 12/17): 70.6%
AEs (all grades and doses) by SOC: Skin and subcutaneous tissue disorders ([1]; Panel 2 (CT), 12/17): 70.6%
patients with a Grade 3 or 4 drug-related AE ([1]; Panel 2 (CT), 12/17): 70.6%
AEs (all grades and doses) by SOC: Blood and lymphatic system disorders ([1]; Panel 2 (CT), 15/17): 88.2%
AEs (all grades and doses) by SOC: General disorders and administration site conditions ([1]; Panel 2 (CT), 15/17): 88.2%
Death [1, 6]: 0 n (%)
Discontinued treatment due to a drug-related AE [1, 6]: 1 (5.9) n (%)
Discontinued treatment due to a drug-related SAE [1, 6]: 1 (5.9) n (%)
Discontinued treatment due to an SAE [1, 6]: 2 (11.8) n (%)
Discontinued treatment due to any AE [1, 6]: 2 (11.8) n (%)
Patients with any AE [1, 6]: 17 (100.0) n (%)
Patients with drug-related AE [1, 6]: 15 (88.2) n (%)
Patients with no AE [1, 6]: 0 n
Patients with serious AE [1, 6]: 9 (52.9) n (%)
Patients with serious drug-related AE [1, 6]: 4 (23.5) n (%)
Drug-related AEs by SOC: Blood and lymphatic system disorders [1, 7]: 14 (82.4) n (%)
Drug-related AEs by SOC: Gastrointestinal disorders [1, 7]: 11 (64.7) n (%)
Drug-related AEs by SOC: General disorders and administration site conditions [1, 7]: 11 (64.7) n (%)
Drug-related AEs by SOC: Infections and infestations [1, 7]: 4 (23.5) n (%)
Drug-related AEs by SOC: Investigations [1, 7]: 5 (29.4) n (%)
Drug-related AEs by SOC: Metabolism and nutrition disorders [1, 7]: 9 (52.9) n (%)
Drug-related AEs by SOC: Musculoskeletal and connective tissue disorders [1, 7]: 5 (29.4) n (%)
Drug-related AEs by SOC: Nervous system disorders [1, 7]: 3 (17.6) n (%)
Drug-related AEs by SOC: Respiratory, thoracic and mediastinal disorders [1, 7]: 5 (29.4) n (%)
Drug-related AEs by SOC: Skin and subcutaneous tissue disorders [1, 7]: 8 (47.1) n (%)
Drug-related AEs by SOC: Vascular disorders [1, 7]: 2 (11.8) n (%)
Patients with drug-related AEs, highest grade: Grade 1 [1, 7]: 0 (0.0) n (%)
Patients with drug-related AEs, highest grade: Grade 2 [1, 7]: 3 (17.6) n (%)
Patients with drug-related AEs, highest grade: Grade 3 [1, 7]: 6 (35.3) n (%)
Patients with drug-related AEs, highest grade: Grade 4 [1, 7]: 6 (35.3) n (%)
Patients with no drug-related AEs [1, 7]: 2 (11.8) n (%)
Patients with one or more drug-related AEs [1, 7]: 15 (88.2) n (%)
Drug-related AEs by SOC: Blood and lymphatic system disorders ([1]; Total (N = 35)): 20 (57.1) n (%)
Drug-related AEs by SOC: Gastrointestinal disorders ([1]; Total (N = 35)): 19 (54.3) n (%)
Drug-related AEs by SOC: General disorders and administration site conditions ([1]; Total (N = 35)): 20 (57.1) n (%)
Drug-related AEs by SOC: Infections and infestations ([1]; Total (N = 35)): 4 (11.4) n (%)
Drug-related AEs by SOC: Investigations ([1]; Total (N = 35)): 8 (22.9) n (%)
Drug-related AEs by SOC: Metabolism and nutrition disorders ([1]; Total (N = 35)): 13 (37.1) n (%)
Drug-related AEs by SOC: Musculoskeletal and connective tissue disorders ([1]; Total (N = 35)): 7 (20.0) n (%)
Drug-related AEs by SOC: Nervous system disorders ([1]; Total (N = 35)): 7 (20.0) n (%)
Drug-related AEs by SOC: Respiratory, thoracic and mediastinal disorders ([1]; Total (N = 35)): 7 (20.0) n (%)
Drug-related AEs by SOC: Skin and subcutaneous tissue disorders ([1]; Total (N = 35)): 10 (28.6) n (%)
Drug-related AEs by SOC: Vascular disorders ([1]; Total (N = 35)): 2 (5.7) n (%)
Patients with drug-related AEs, highest grade: Grade 1 ([1]; Total (N = 35)): 4 (11.4) n (%)
Patients with drug-related AEs, highest grade: Grade 2 ([1]; Total (N = 35)): 8 (22.9) n (%)
Patients with drug-related AEs, highest grade: Grade 3 ([1]; Total (N = 35)): 7 (20.0) n (%)
Patients with drug-related AEs, highest grade: Grade 4 ([1]; Total (N = 35)): 7 (20.0) n (%)
Patients with no drug-related AEs ([1]; Total (N = 35)): 9 (25.7) n (%)
Patients with one or more drug-related AEs ([1]; Total (N = 35)): 26 (74.3) n (%)
single-agent activity [2]: modest single-agent activity
target specificity relative to other kinases [3]: comparatively high target specificity
apoptosis in combination with docetaxel [4]: robustly potentiated apoptosis
genes (of seven) with significant dose-related changes in the expected direction [5]: 5 genes
